Reference: article PMC6467771 (Journal of medicinal chemistry, 2019)
pIC50: −log10 of the molar value. Like-named read-outs stand apart in the source and are kept apart here.

Tests used:
[1] = test system: uropathogenic Escherichia coli (UPEC); conditions: cited from earlier work
[2] = target: FmlH (Escherichia coli, UniProt Q1RBS0); format: binding, Escherichia coli (UPEC, CFT073); conditions: FmlH binding to desialylated bovine submaxillary mucin, average of four or more replicates
[3] = Kinetic aqueous solubility; format: physicochemical; conditions: aqueous, pH 7.4
[4] = Mouse liver microsome stability; format: in vitro ADME
[5] = Stability in simulated intestinal fluid; format: in vitro ADME
[6] = Stability in simulated gastric fluid; format: in vitro ADME
[7] = Mouse plasma stability; format: in vitro ADME

Molecule | effect on bacterial titers in bladder and kidney ([1]; co-administration with 4Z269, a mannoside inhibitor of FimH) | effect on bladder and kidney CFUs ([1]; treatment model of chronic cystitis) | pIC50 ([2]; IC50, ELISA) | kinetic solubility [3] [µM] | mouse liver microsomes (t1/2 min) [4] [h] | SIF (% remaining @ 2 h) [5] [%] | pIC50 ([2]; ELISA) | SGF (% remaining @ 6 h) [6] [%] | mouse plasma (% remaining @ 2 h) [7] [%]
CC(=O)N[C@H]1[C@H](Oc2ccccc2-c2cccc(C(=O)O)c2)O[C@H](CO)[C@H](O)[C@@H]1O [Compound 1] | further reduced bacterial titers in both the bladder and kidney | significantly reduce bladder and kidney CFUs | 6.19 | – | – | – | – | – | –
N-((2S,3S,4R,5R)-4/5-Dihydro xy-6-(hydroxymethyl)-2-((6-methyl-3’-(methylsulfonamido)-[1,1’-biphenyl]-2-yl)oxy)tetrahydro-2H-pyran-3-yl)-2,2,2-trifluoroacetimidic Acid [Compound 88] | – | – | – | 164 | >2.42 | 89 | 7.32 | 91 | 89
